Laboratory results published in ChEMBL document CHEMBL3301361, “Experimental in vitro DMPK and physicochemical data on a set of publicly disclosed compounds”.

experiment: physchem; conditions: octan-1-ol/water, pH 7.4, LogD7.4

Compound | logD
C1=C(c2cc3ccccc3o2)C2CCN1CC2 | 2.59
NC1CCc2cc(OC(=O)c3ccccc3)c(OC(=O)c3ccccc3)cc2C1 (stereo unspecified) | 2.6
O=C(COCc1ccncc1)N1CCC(c2ccc(F)cc2Cl)CC1 | 2.7
O=C(COCc1ccncc1)N1CCC(c2ccc(Cl)cc2Cl)CC1 | 2.63
Cc1sc2ncnc(SCC(=O)N3CCN(C(=O)c4ccco4)CC3)c2c1C | 2.7
O=C1NC(c2ccc(Br)cc2)Nc2ccccc21 (stereo unspecified) | 2.68
CSc1ncccc1C(=O)NCc1ccc(C)cc1 | 2.71
CCOc1ccc(-c2cnc3n2CCC3)cc1 | 2.65
COc1cc2nnc(C(N)=O)c(Nc3cc(C)ccc3F)c2cc1N1CCN(C)CC1 | 2.57
O=C(N[C@@H](c1ccccc1)[C@@H]1CCCCN1)c1cccc(C(F)(F)F)c1Cl | 2.61
Oc1ccc(-c2nc3ccccc3nc2-c2ccc(O)cc2)cc1 | 2.7
Cc1ccc(NC(=O)c2cccc(N(C)C)c2)cc1NC(=O)c1ccc(O)cc1 | 2.65
COc1ccc(NC(=O)c2ccc(-c3ccncc3)c(C)c2)cc1N1CCN(C)CC1 | 2.56
Cc1ccc(C(=O)NC2CCN(c3cc(C(N)=O)cc(Cl)n3)CC2)[nH]1 | 2.64
CN[C@@H](C)C(=O)N[C@H](C(=O)N[C@H]1CCCN(CCCc2ccccc2)C1)C1CCCCC1 | 2.6
CN[C@@H](C)C(=O)N[C@H](C(=O)N[C@H]1CCCN(CCc2cccc(F)c2)C1)C1CCCCC1 | 2.64
O=C(Nc1ccc(Nc2ccc(NC(=O)c3ccccc3)c3c2C(=O)c2ccccc2C3=O)c2c1C(=O)c1ccccc1C2=O)c1ccccc1 | 2.63
CCN1CCO[C@@H](CN2CCN(C(=O)Nc3ccc(Cl)c(Cl)c3)CC2)C1 | 2.68
Cc1ccc(-c2ncc(C)n2C)cc1NC(=O)c1ccc(OCc2ccccn2)cc1 | 2.67
CC(=O)Nc1cc2c(ccn2-c2cc(NC3CC3)n3ncc(C#N)c3n2)cc1C | 2.66
CC(=O)Nc1ccc2[nH]cc(-c3cc(NC4CC4)n4ncc(C#N)c4n3)c2c1 | 2.65
Cc1cc(CNc2ncc(Cl)c(Nc3cc(C)[nH]n3)n2)on1 | 2.68
CCCSc1nc(NC[C@H]2CC[C@H](C(=O)O)CC2)ccc1C(=O)NC1CCCCC1 | 2.61
Cc1cc(S(=O)(=O)N2CCN(C)CC2)ccc1-c1cnc(N)c(C(=O)Nc2cccnc2)n1 | 2.6

Compound | logD
CC(C)(c1cc(N2CCOCC2)nc(-c2cccc3[nH]ccc23)n1)S(C)(=O)=O | 2.65
C[C@H](NC(=O)C1(N)CCN(c2ncnc3[nH]ccc23)CC1)c1ccc(Cl)cc1 | 2.67
NC1(C(=O)NC(CCCN2CCOCC2)c2ccc(Cl)cc2)CCN(c2ncnc3[nH]ccc23)CC1 (stereo unspecified) | 2.7
COCCN(C)Cc1ccc(Nc2ncc3cc(-c4ccncc4)ccc3n2)cc1 | 2.65
COc1ccc(-c2ccc3c(N4CCOC[C@@H]4C)nc(-n4ccnc4)nc3n2)cc1CO | 2.6
O=C1C2=Nc3ccccc3CN2c2ccccc21 | 2.71
Cn1c(N)nc(CCc2ccc3ccccc3c2)cc1=O | 2.7
CC(C)C(NC(=O)Cn1c(-c2ccccc2)ccc(NS(=O)(=O)NCc2ccccc2)c1=O)C(=O)C(F)(F)F (stereo unspecified) | 2.57
C[C@@](O)(C(=O)Nc1ccc(C(=O)N2CCCCC2)cc1Cl)C(F)(F)F | 2.62
O=C1O[C@@H](COc2ccon2)CN1c1ccc(C2=CCOCC2)c(F)c1 | 2.61
Clc1ccc2c(c1Nc1ncnc3cc(OCCN4CCCC4)cc(OC4CCOCC4)c13)OCO2 | 2.6
Cn1c(-c2ccncc2)cc2onc(-c3ccccc3)c2c1=O | 2.61
CCCCC(O)c1[nH]c2cc(C)c(C(=O)O)cc2c1CCc1ccccc1 (stereo unspecified) | 2.59
COCCOc1cc2nccc(Nc3cc(O)c(Cl)cc3F)c2cc1OC | 2.64
CCCN(CCC)C(=O)c1cccc(C(=O)N[C@@H](Cc2ccccc2)[C@H](O)CNCc2cccc(OC)c2)c1 | 2.7
Cn1cc(S(C)(=O)=O)nc1-c1c2c(=O)n(C)c(=O)n(CC3CC3)c2nn1Cc1ccnc2ccc(Cl)cc12 | 2.64
COc1cc2ncc(C(N)=O)c(Nc3ccc(F)cc3F)c2cc1NCCN1CCOCC1 | 2.68
O=C1C(=O)c2cccc([N+](=O)[O-])c2-c2ccccc21 | 2.6
CNC(=O)c1ccc(Nc2nccc(-c3cnc(C)n3C(C)C)n2)cc1 | 2.69
Cn1c(=O)c2c(-c3ccc(S(C)(=O)=O)o3)n(Cc3ccnc4ccc(Cl)cc34)nc2n(CC2CC2)c1=O | 2.71
Cc1cc(Oc2ccnc(Nc3ccc(N4CCOCC4)cc3)c2)c(-c2ccccn2)nc1C | 2.59
Nc1nonc1C(=NO)Nc1ccc(F)c(Cl)c1 | 2.7
C=CCNC(=O)c1cc([N+](=O)[O-])cc2c(=O)[nH]c(Nc3ccc(Cl)c(Cl)c3)nc12 | 2.7
O=C1Nc2ccc(S(=O)(=O)N3CCC[C@H]3COc3ccccc3)cc2C1=O | 2.7

Further lines, results first:

logD | Compound
2.63 | CC(C)c1ncc(NC(=O)OCc2ccccc2)c(=O)n1CC(=O)NC(C(=O)C(F)(F)F)C(C)C (stereo unspecified)
2.71 | N#Cc1cc(S(=O)(=O)NCC(c2ccccc2)N2CCCCCC2)ccc1F (stereo unspecified)
2.71 | COc1ccc(-c2cc(=O)c3ccccc3[nH]2)cc1
2.7 | COc1ccc(-c2cc(O)c3cc(Cl)ccc3n2)cc1
2.63 | CCN(CC)S(=O)(=O)c1ccc(NC(=O)C(C)(O)C(F)(F)F)cc1 (stereo unspecified)
2.6 | COc1cc(F)ccc1-c1cncc(CNC2CCCCC2)c1
2.57 | N#Cc1ccccc1Oc1ccc(C(=O)NCc2ccncc2)cc1
2.64 | C=CCCCCCCCCC(=O)N[C@H]1CCC(=O)NC1=O
2.56 | CCC(c1nc2ccsc2c(=O)n1Cc1ccccc1)N(CCCN)C(=O)c1ccc(C)nc1 (stereo unspecified)
2.7 | COc1cc2ncnc(Nc3cc(NC(=O)c4ccnc(N5CCOCC5)c4)ccc3C)c2cc1OCCN1CCCC1
2.68 | Clc1ccccc1-c1c[nH]nn1
2.58 | Cc1ccc(-c2c[nH]nn2)cc1
2.7 | O=C(NCc1ccccn1)c1ccc(Oc2ccccc2)cc1
2.69 | Cn1cncc1-c1c2c(=O)n(C)c(=O)n(CC3CC3)c2nn1Cc1ccnc2ccc(Cl)cc12
2.7 | COc1cc(N2CCN(C)CC2)c2[nH]c(C(=O)Nc3ccc(N4CCOCC4)cc3)cc(=O)c2c1
2.7 | CN1CCN(c2cc(F)cc3c(=O)cc(C(=O)Nc4ccc(N5CCOCC5)cc4)[nH]c23)CC1
2.7 | O=S(=O)(Nc1ncc(Cl)s1)c1cc(F)c(Oc2ccc(F)cc2-c2cn[nH]c2)cc1F
2.65 | Nc1n[nH]cc1-c1cc(C(F)(F)F)ccc1Oc1cc(F)c(S(=O)(=O)Nc2cscn2)cc1Cl
2.7 | CC(NC(=O)C1(N)CCN(c2ncnc3[nH]ccc23)CC1)c1ccc(Cl)cc1 (stereo unspecified)
2.64 | Nc1ccc2ncnc(Nc3ccc(F)c(Cl)c3)c2c1
2.7 | NS(=O)(=O)c1ccc(Nc2nccc(Nc3c(Cl)ccc4c3OCO4)n2)cc1
2.6 | COC(=O)CCCCCCC(=O)Nc1ccc2c(c1)-c1ccccc1C(=O)C2=O
2.67 | CCOc1ccccc1-c1ccc2c(c1)C(=O)C(=O)c1ccccc1-2
2.7 | COc1cc(N2CC[C@@H](N(C)C)C2)c2[nH]c(C(=O)Nc3ccc(N4CCOCC4)cc3)cc(=O)c2c1
2.7 | CC[C@H](C)[C@@H](CO)NS(=O)(=O)c1ccc(Cl)s1
2.6 | Cn1cc(-c2cccc(C[C@H](NC(=O)c3cc(C(C)(C)C)nn3C)C(=O)NCC#N)c2)cn1
2.6 | CN1CC(=O)N2[C@H](c3ccc4c(c3)OCO4)c3[nH]c4ccccc4c3C[C@@H]2C1=O
2.7 | COC(=O)c1c(C)[nH]c(C)c1C(=O)c1ccccc1Cl
